Reference: the supplement of paper PMC10307832

What was measured:
Assay in all cases: relative viability (nuclei count vs DMSO), 5 days (fraction); higher = more cells survive
[1] = compound: CN(C)C/C=C/C(=O)Nc1cc2c(Nc3ccc(F)c(Cl)c3)ncnc2cc1O[C@H]1CCOC1 [Afatinib] + COc1cc2c(Oc3ccc(NC(=O)C4(C(=O)Nc5ccc(F)cc5)CC4)cc3F)ccnc2cc1OCCCN1CCOCC1 [Foretinib] (partner 0.25 µM)
In short: (§1)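 Relative viability is defined as nuclei in treated wells over nuclei in vehicle wells. Duplicate plates were run and medians reported. Lung cancer cell lines in 1536-well plates were dosed by pin tool one day after seeding, with one drug or with a fixed anchor-drug dose plus five library-drug doses (not always all listed) in √10 steps, and nuclei were counted after 5 days.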

[2] = compound: CN(C)C/C=C/C(=O)Nc1cc2c(Nc3ccc(F)c(Cl)c3)ncnc2cc1O[C@H]1CCOC1 [Afatinib] + Cc1cc(Nc2cc(N3CCN(C)CC3)nc(Sc3ccc(NC(=O)C4CC4)cc3)n2)n[nH]1 [Tozasertib] (partner 0.1 µM)
In short: as §1

[3] = compound: CN(C)C/C=C/C(=O)Nc1cc2c(Nc3ccc(F)c(Cl)c3)ncnc2cc1O[C@H]1CCOC1 [Afatinib] + CCNC(=O)c1noc(-c2cc(C(C)C)c(O)cc2O)c1-c1ccc(CN2CCOCC2)cc1 [Luminespib] (partner 0.01 µM)
In short: as §1

[4] = compound: CN(C)C/C=C/C(=O)Nc1cc2c(Nc3ccc(F)c(Cl)c3)ncnc2cc1O[C@H]1CCOC1 [Afatinib] + NC(=O)Nc1cc(-c2cccc(F)c2)sc1C(=O)N[C@H]1CCCNC1 [AZD7762] (partner 0.2 µM)
In short: as §1

Cell Line | relative viability ([1]; first compound 0.005 µM) | relative viability ([1]; first compound 0.01581 µM) | relative viability ([1]; first compound 0.05 µM) | relative viability ([1]; first compound 0.1581 µM) | relative viability ([1]; first compound 0.5 µM) | relative viability ([2]; first compound 0.005 µM) | relative viability ([2]; first compound 0.01581 µM) | relative viability ([2]; first compound 0.05 µM) | relative viability ([2]; first compound 0.1581 µM) | relative viability ([2]; first compound 0.5 µM) | relative viability ([3]; first compound 0.005 µM) | relative viability ([3]; first compound 0.01581 µM) | relative viability ([3]; first compound 0.05 µM) | relative viability ([3]; first compound 0.1581 µM) | relative viability ([3]; first compound 0.5 µM) | relative viability ([4]; first compound 0.005 µM) | relative viability ([4]; first compound 0.01581 µM) | relative viability ([4]; first compound 0.05 µM) | relative viability ([4]; first compound 0.1581 µM) | relative viability ([4]; first compound 0.5 µM)
201T | 1.04 | 1.05 | 1.01 | 0.949 | 1.17 | 1.01 | 0.915 | 0.948 | 0.806 | 0.827 | 1.01 | 1.02 | 1.03 | 0.975 | 1.03 | 0.483 | 0.626 | 0.599 | 0.667 | 0.62
A-427 | 0.85 | 1.05 | 1.11 | 0.947 | 1.02 | 0.204 | 0.193 | 0.192 | 0.173 | 0.225 | 1.1 | 0.926 | 1.04 | 0.968 | 0.915 | 0.587 | 0.705 | 0.823 | 0.676 | 0.698
ABC-1 | 1.25 | 1.01 | 1.08 | 0.743 | 1.21 | 0.172 | 0.123 | 0.177 | 0.168 | 0.165 | 0.938 | 0.717 | 0.538 | 0.2 | 0.857 | 0.631 | 0.717 | 0.666 | 0.662 | 1.09
BEN | 0.719 | 0.63 | 0.651 | 0.634 | 0.775 | 0.461 | 0.512 | 0.57 | 0.475 | 0.494 | 0.366 | 0.24 | 0.261 | 0.549 | 0.288 | 0.618 | 0.704 | 0.648 | 0.642 | 0.636
CAL-12T | 1.15 | 1.02 | 1.29 | 0.56 | 0.684 | 0.315 | 0.339 | 0.311 | 0.168 | 0.189 | 0.865 | 0.595 | 0.361 | 0.279 | 0.27 | 0.631 | 0.594 | 0.546 | 0.491 | 0.505
ChaGo-K-1 | 0.86 | 0.882 | 0.876 | 0.86 | 0.846 | 0.231 | 0.239 | 0.225 | 0.215 | 0.212 | 0.688 | 0.652 | 0.566 | 0.499 | 0.579 | 0.801 | 0.868 | 0.827 | 0.871 | 0.827
EKVX | 0.838 | 0.428 | 0.453 | 0.129 | 0.318 | 0.379 | 0.423 | 0.31 | 0.132 | 0.169 | 0.714 | 0.858 | 0.58 | 0.191 | 0.298 | 0.638 | 0.368 | 0.373 | 0.315 | 0.865
EMC-BAC-2 | 1.03 | 0.952 | 0.865 | 0.753 | 0.928 | 0.315 | 0.299 | 0.342 | 0.326 | 0.309 | 1.23 | 1.13 | 1.13 | 1.04 | 1.16 | 1.07 | 1.17 | 1.14 | 1.06 | 1.19
EPLC-272H | 0.492 | 0.426 | 0.406 | 0.381 | 0.355 | 0.205 | 0.427 | 0.133 | 0.164 | 0.253 | 0.239 | 0.482 | 0.228 | 0.267 | 0.172 | 0.139 | 0.229 | 0.175 | 0.187 | 0.168
H3255 | 0.861 | 0.134 | 0.2 | 0.216 | 0.188 | 0.315 | 0.204 | 0.222 | 0.168 | 0.195 | 0.461 | 0.234 | 0.303 | 0.336 | 0.269 | 0.405 | 0.284 | 0.278 | 0.259 | 0.287
HARA | 0.825 | 0.451 | 0.401 | 0.377 | 0.403 | 0.0895 | 0.0918 | 0.0646 | 0.0722 | 0.062 | 0.719 | 0.327 | 0.425 | 0.334 | 0.458 | – | – | 0.225 | 0.217 | 0.287
HCC-15 | 1.04 | 1.15 | 1.08 | 1.07 | 0.988 | 0.49 | 0.488 | 0.422 | 0.299 | 0.406 | 0.352 | 0.56 | 0.313 | 0.48 | 0.34 | 1.14 | 1.39 | 1.32 | 1.19 | 1.05
HCC-827 | 0.135 | 0.166 | 0.162 | 0.147 | 0.163 | 0.0972 | 0.11 | 0.112 | 0.131 | 0.112 | 0.228 | 0.133 | 0.227 | 0.169 | 0.148 | 0.11 | 0.119 | 0.125 | 0.121 | 0.0942
HOP-62 | 1.18 | 1.23 | 1.18 | 1.14 | 1.1 | 0.43 | 0.347 | 0.385 | 0.37 | 0.435 | 1.04 | 0.977 | 0.968 | 0.994 | 0.89 | 0.561 | 0.512 | 0.571 | 0.64 | 0.471
NCI-H522 | – | – | – | – | – | 0.512 | 0.535 | 0.521 | 0.449 | 0.401 | 1.25 | 1.19 | 0.978 | 0.923 | 1 | 0.76 | 0.812 | 0.817 | 0.767 | 0.748
